In patent US20030124585A1, “Type II gonadotropin-releasing hormone receptor and polynucleotides encoding therefor” (Medical Research Council, priority 2000, published 2003):
Read-outs that look alike come from different tables or passages of the source. Square brackets hold non-standard residues; d marks the D form. Peptide text beside a SMILES is read from it. pGlu = O=C1CC[C@@H](C(=O)O)N1

Legend:
Marmoset Type II GnRH-R [1] = target: T1, Marmoset Type II GnRH-R (Callithrix jacchus, UniProt Q95MG6); assay: Receptor binding, competition with 125I-[His5,D-Tyr6]GnRH, transfected COS-7 cells; conditions: for IC50: s.e.m.
T1 construct: Full length marmoset Type II GnRH receptor was produced by PCR; expressed in transfected cells; host or cells: COS-7 cells, transient transfection (Superfect), plasmid pcDNA3.1+
T1 sequence (Q95MG6 1-380): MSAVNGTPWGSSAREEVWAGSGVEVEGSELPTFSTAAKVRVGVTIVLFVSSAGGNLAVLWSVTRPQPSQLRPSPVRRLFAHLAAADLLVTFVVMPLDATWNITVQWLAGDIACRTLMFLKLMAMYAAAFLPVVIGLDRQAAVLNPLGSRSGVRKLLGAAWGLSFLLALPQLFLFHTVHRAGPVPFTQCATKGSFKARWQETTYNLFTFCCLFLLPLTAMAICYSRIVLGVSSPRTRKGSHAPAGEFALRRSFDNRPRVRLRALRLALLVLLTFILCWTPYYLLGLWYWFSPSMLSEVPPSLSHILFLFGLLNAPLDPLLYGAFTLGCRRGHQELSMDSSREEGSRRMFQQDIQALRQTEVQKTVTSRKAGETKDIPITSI
Method: (§1) Cell culture and transfection. COS-7 cells were cultured as previously described (20, 21). Transient transfections of COS-7 cells with human Type I GnRH receptor or marmoset Type II GnRH receptor, along with myc-tagged ERK2, JNK and p38α constructs were performed using Superfect (Qiagen) according to the manufacturer's protocol. All assays described were performed 48 h post transfection.
(§2) Receptor binding and inositol phosphate production.

Marmoset Type II GnRH-R [2] = assay: as above; conditions: Type II versus Type I receptor; for Selectivity of the Type II receptor for the ligand (in words): binding, COS-7 cells
Method: as §1, §2

[3] = target: T2, human Type I GnRH receptor (Homo sapiens, UniProt P30968); assay: as above; conditions: for IC50: Table 1, s.e.m., n=3-6, read-out: Ligand binding (IC50) Human Type I
T2 construct: expressed in transfected cells; host or cells: COS-7 cells, transient transfection (Superfect)
T2 sequence (P30968 1-328): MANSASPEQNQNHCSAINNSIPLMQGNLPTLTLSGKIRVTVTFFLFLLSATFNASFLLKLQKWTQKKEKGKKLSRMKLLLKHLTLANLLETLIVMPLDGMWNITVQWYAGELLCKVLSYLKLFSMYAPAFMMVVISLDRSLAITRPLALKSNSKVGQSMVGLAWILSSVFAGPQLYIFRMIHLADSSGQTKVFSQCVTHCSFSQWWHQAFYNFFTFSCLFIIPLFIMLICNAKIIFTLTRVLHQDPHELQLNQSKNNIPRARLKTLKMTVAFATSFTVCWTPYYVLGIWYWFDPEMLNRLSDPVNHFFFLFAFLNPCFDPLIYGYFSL
Method: as §1, §2

Marmoset Type II GnRH-R [4] = target: T1, Marmoset Type II GnRH-R; assay: Total inositol phosphate production in transfected COS-7 cells; assay type: cell-based; conditions: for EC50: s.e.m.
Method: as §1, §2

[5] = target: T2, human Type I GnRH receptor; assay: as above; assay type: cell-based; conditions: for EC50: Table 1, s.e.m., n=3-6, read-out: InsP production (EC50) Human Type I
Method: as §1, §2

[6] = target: T3, marmoset Type II GnRH receptor (Callithrix jacchus, UniProt Q95MG6); assay: Phospho-MAP kinase assay, p38α activation in transfected COS-7 cells; assay type: cell-based; conditions: 100 nM, FIG. 8c
T3 construct: Full length marmoset Type II GnRH receptor was produced by PCR; expressed in transfected cells; host or cells: COS-7 cells, transient transfection (Superfect), plasmid pcDNA3.1+
T3 sequence (Q95MG6 1-380): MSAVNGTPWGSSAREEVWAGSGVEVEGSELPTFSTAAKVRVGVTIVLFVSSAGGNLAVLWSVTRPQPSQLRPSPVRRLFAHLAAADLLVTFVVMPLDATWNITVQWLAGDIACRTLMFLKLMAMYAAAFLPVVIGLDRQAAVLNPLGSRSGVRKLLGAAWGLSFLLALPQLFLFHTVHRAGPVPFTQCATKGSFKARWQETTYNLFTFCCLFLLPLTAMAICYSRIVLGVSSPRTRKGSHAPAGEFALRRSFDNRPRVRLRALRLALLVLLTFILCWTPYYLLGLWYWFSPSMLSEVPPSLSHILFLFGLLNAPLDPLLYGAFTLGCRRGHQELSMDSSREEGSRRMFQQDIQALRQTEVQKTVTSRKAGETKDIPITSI
Method: as §1
(§3) Phospho-MAP kinase assay. […] After ligand stimulation, COS-7 cells were prepared for immunoprecipitation (23). Co-transfected myc-tagged MAP kinase constructs were immunoprecipitated from cell lysates by overnight incubation with myc-agarose slurry (Santa Cruz), washed, an equal volume of 2×Laemmli sample buffer added, resolved by SDS-PAGE and electrotransferred to PVDF membrane (NEN Life Sciences). Activated MAP kinase was detected using anti-phospho-ERK/JNK/p38a-kinase specific antisera (New England Biolabs), visualised by enzyme-linked chemifluorescence (Amersham-Pharmacia) and quantified using a phosphorimager. The degree of phosphorylated MAP kinase was normalised to the amount of unphosphorylated MAP kinase detected with specific antisera.

FSH and LH secretion = assay: Stimulation of LH and FSH in sheep (Soay ram model); assay type: in vivo; conditions: 10 μg dose, intravenous bolus, n=8
Method: Stimulation of LH and FSH in sheep. […] The same animals (n=8) were used on the two occasions. The GnRHs were administered at doses of 250 ng/ram and 10 μg/ram in a cross-over design with a week between treatments to permit full recovery. The peptides were dissolved in 1 ml of 0.9% saline and given as an intravenous bolus. Blood samples were collected every 10 min, from 20 min before, until 2 h after the treatments and assayed by specific radioimmunoassays (24). The FSH and LH responses to the GnRH agonists were calculated as delta responses (2 h mean hormone concentration post treatment minus 20 min mean pre-treatment hormone concentration). […] This was assessed for each animal and then for the group (mean±SEM, n=8), under both LD and SD.

Type I receptor = conditions: cited from earlier work
[7] = target: T2, human Type I GnRH receptor; assay: Phospho-MAP kinase assay, ERK2 activation in transfected COS-7 cells; assay type: cell-based; conditions: FIG. 8a
Method: as §1, §3

[8] = FIG. 4, COS-7 cells, n=2, read-out: IC50, heterologous competition binding of 125I-[His5,D-Tyr6]GnRH
[9] = Table 1, n=3-6, read-out: Ligand binding (IC50) Marmoset Type II
[10] = FIG. 5, COS-7 cells, n=2, read-out: EC50, total inositol phosphate production
[11] = Table 1, n=3-6, read-out: InsP production (EC50) Marmoset Type II

NC(=O)CNC(=O)[C@@H]1CCCN1C(=O)[C@H](Cc1ccc(O)cc1)NC(=O)[C@H](Cc1c[nH]c2ccccc12)NC(=O)CNC(=O)[C@H](Cc1c[nH]cn1)NC(=O)[C@H](CO)NC(=O)[C@H](Cc1c[nH]c2ccccc12)NC(=O)[C@H](Cc1c[nH]cn1)NC(=O)[C@@H]1CCC(=O)N1 [GnRH II, [His^5,Trp^7,Tyr^8]GnRH I] ([pGlu]HWSHGWYPG-NH2; C-terminus assumed)
Receptor binding activity relative to mammalian GnRH I at the Type II receptor (Marmoset Type II GnRH-R [1]; COS-7 cells): 40 fold | IC50 (Marmoset Type II GnRH-R [1]; [8]): 1.3 ± 0.2 nM | IC50 (Marmoset Type II GnRH-R [1]; [9]): 1.07 ± 0.04 nM | Affinity for the Type II receptor relative to the Type I receptor (Marmoset Type II GnRH-R [2]): 24 fold | Selectivity of the Type II receptor for the ligand (in words) (Marmoset Type II GnRH-R [2]): high selectivity | Receptor binding activity as percent of mammalian GnRH I at the Type I receptor ([3]; COS-7 cells): 10% | Inositol phosphate production activity relative to mammalian GnRH I at the Type II receptor (Marmoset Type II GnRH-R [4]; COS-7 cells): 90 fold | EC50 (Marmoset Type II GnRH-R [4]; [10]): 0.46 ± 0.12 nM | EC50 (Marmoset Type II GnRH-R [4]; [11]): 0.45 ± 0.05 nM | Inositol phosphate production activity as percent of mammalian GnRH I at the Type I receptor ([5]; COS-7 cells): 9% | Activation of p38α MAP kinase (in words) [6]: selective and time-dependent activation | Mean ratio of FSH to LH secretion relative to that induced by mammalian GnRH I (FSH and LH secretion; sexually active rams): 2.14±0.29 times | Mean ratio of FSH to LH secretion relative to that induced by mammalian GnRH I (FSH and LH secretion; sexually quiescent rams): 2.02±0.34 times | Affinity and potency as percent of mammalian GnRH I at the Type I receptor (Type I receptor): ≤ 20%

CC(C)C[C@H](NC(=O)CNC(=O)[C@H](Cc1ccc(O)cc1)NC(=O)[C@H](CO)NC(=O)[C@H](Cc1c[nH]c2ccccc12)NC(=O)[C@H](Cc1c[nH]cn1)NC(=O)[C@@H]1CCC(=O)N1)C(=O)N[C@@H](CCCNC(=N)N)C(=O)N1CCC[C@H]1C(=O)NCC(N)=O [GnRH I]
IC50 (Marmoset Type II GnRH-R [1]; [8]): 51.7 ± 1.9 nM | IC50 (Marmoset Type II GnRH-R [1]; [9]): 42.6 ± 3.19 nM | EC50 (Marmoset Type II GnRH-R [4]; [10]): 33.2 ± 6.3 nM | EC50 (Marmoset Type II GnRH-R [4]; [11]): 40.5 ± 4.43 nM | Activation of ERK2 (in words) [7]: considerably more potent than GnRH II

N=C(N)NCCC[C@@H](NC(=O)[C@H](Cc1c[nH]cn1)NC(=O)[C@H](CO)NC(=O)[C@H](Cc1c[nH]c2ccccc12)NC(=O)[C@H](Cc1c[nH]cn1)NC(=O)[C@@H]1CCC(=O)N1)C(=O)N[C@@H](Cc1c[nH]c2ccccc12)C(=O)N[C@@H](Cc1ccc(O)cc1)C(=O)N1CCC[C@H]1C(=O)NCC(N)=O [[D-Arg^6] GnRH II, [D-Arg^6]GnRH II] ([pGlu]HWSH[dR]WYPG-NH2; C-terminus assumed)
IC50 (Marmoset Type II GnRH-R [1]; [9]): 3.34 ± 0.06 nM | Selectivity of the Type II receptor for the ligand (in words) (Marmoset Type II GnRH-R [2]): more selective | IC50 [3]: 11.9 ± 0.35 nM | EC50 (Marmoset Type II GnRH-R [4]; [10]): 1.1 ± 0.23 nM | EC50 (Marmoset Type II GnRH-R [4]; [11]): 2.39 ± 0.64 nM | EC50 [5]: 3.8 ± 0.71 nM

CC(C)C[C@H](NC(=O)[C@H](Cc1c[nH]c2ccccc12)NC(=O)CNC(=O)[C@H](Cc1ccc(O)cc1)NC(=O)[C@H](CO)NC(=O)[C@H](Cc1c[nH]c2ccccc12)NC(=O)[C@H](Cc1c[nH]cn1)NC(=O)[C@@H]1CCC(=O)N1)C(=O)N1CCC[C@H]1C(=O)NCC(N)=O [sGnRH, [Trp^7,Leu^8]GnRH I] ([pGlu]HWSYGWLPG-NH2; C-terminus assumed)
IC50 (Marmoset Type II GnRH-R [1]; [8]): 9.8 ± 1.4 nM | IC50 (Marmoset Type II GnRH-R [1]; [9]): 9.48 ± 2.17 nM | Selectivity of the Type II receptor for the ligand (in words) (Marmoset Type II GnRH-R [2]): more selective | IC50 [3]: 244 ± 23.6 nM | EC50 (Marmoset Type II GnRH-R [4]; [10]): 8.7 ± 0.5 nM | EC50 (Marmoset Type II GnRH-R [4]; [11]): 5.99 ± 0.91 nM | EC50 [5]: 9.62 ± 3.5 nM
